Several values for one entry are separate records, joined by “and”; a condition that tells them apart may be missing. Equal entries are not always repeated.
Test: Study #1 Phase 1: plasma and urine pharmacokinetics of Compound 1 and Compound 1A after IV infusion of Compound 1 (SAD, MAD, loading regimen)
Conditions: both, human
[1] = plasma, 30 mg, Cohort 2: Compound 1 30 mg/3 hr IV, single dose, geometric mean [geometric %CV]
[2] = plasma, 100 mg, Cohort 3: Compound 1 100 mg/3 hr IV, single dose, geometric mean [geometric %CV]
[3] = plasma, 200 mg, Cohort 4: Compound 1 200 mg/3 hr IV, single dose, geometric mean [geometric %CV]
[4] = plasma, 275 mg, Cohort 5: Compound 1 275 mg/3 hr IV, single dose, geometric mean [geometric %CV]

## Nc1ncccc1-c1cc(Cc2ccc(COc3ccccn3)cc2)no1 [Compound 1A]
In vivo, 10 mg
  Vd: 1.53 L/kg
In vivo, 50 mg
  Vd: 188 L
In vivo, 200 mg
  AUC(0-t): 76000 ng·h/mL
plasma, 10 mg, AUC(0-24), Cohort 1: Compound 1 10 mg/3 hr IV, single dose, geometric mean [geometric %CV]
  AUC(0-t): 1540 ng·h/mL
plasma, 10 mg, AUC(0-t), Cohort 1: Compound 1 10 mg/3 hr IV, single dose, geometric mean [geometric %CV]
  AUC(0-t): 2380 ng·h/mL
plasma, 10 mg, Cohort 1: Compound 1 10 mg/3 hr IV, single dose, geometric mean [geometric %CV]
  AUC(0-inf): 4050 ng·h/mL
plasma, 10 mg, Cohort 1: Compound 1 10 mg/3 hr IV, single dose, median
  Tmax: 3 h
plasma, 10 mg, Vz, Cohort 1: Compound 1 10 mg/3 hr IV, single dose, geometric mean [geometric %CV]
  Vd: 107 L
plasma, 30 mg, AUC(0-24), Cohort 2: Compound 1 30 mg/3 hr IV, single dose, geometric mean [geometric %CV]
  AUC(0-t): 4320 ng·h/mL
plasma, 30 mg, AUC(0-t), Cohort 2: Compound 1 30 mg/3 hr IV, single dose, geometric mean [geometric %CV]
  AUC(0-t): 14100 ng·h/mL
[1]
  AUC(0-inf): 16600 ng·h/mL
  Cmax: 477 ng/mL
plasma, 30 mg, Cohort 2: Compound 1 30 mg/3 hr IV, single dose, median
  Tmax: 3 h
plasma, 30 mg, Vz, Cohort 2: Compound 1 30 mg/3 hr IV, single dose, geometric mean [geometric %CV]
  Vd: 121 L and 1.72 L/kg
plasma, 50 mg, AUC(0-24), Cohort 7: Compound 1 50 mg/3 hr IV QD × 14 days, Day 1, geometric mean
  AUC(0-t): 6390 ng·h/mL
plasma, 50 mg, AUC(0-24), Cohort 7: Compound 1 50 mg/3 hr IV QD × 14 days, Day 7, geometric mean
  AUC(0-t): 17600 ng·h/mL
plasma, 50 mg, AUC(0-24), Cohort 7: Compound 1 50 mg/3 hr IV QD × 14 days, Day 14, geometric mean
  AUC(0-t): 20300 ng·h/mL
plasma, 50 mg, Cohort 7: Compound 1 50 mg/3 hr IV QD × 14 days, Day 1, geometric mean
  Cmax: 669 ng/mL
plasma, 50 mg, Cohort 7: Compound 1 50 mg/3 hr IV QD × 14 days, Day 7, geometric mean
  Cmax: 1090 ng/mL
plasma, 50 mg, Cohort 7: Compound 1 50 mg/3 hr IV QD × 14 days, Day 14, geometric mean
  Cmax: 1180 ng/mL
plasma, 50 mg, Cohort 7: Compound 1 50 mg/3 hr IV QD × 14 days, Day 1, median
  Tmax: 3 h
plasma, 50 mg, Cohort 7: Compound 1 50 mg/3 hr IV QD × 14 days, Day 7, median
  Tmax: 3 h
plasma, 50 mg, Cohort 7: Compound 1 50 mg/3 hr IV QD × 14 days, Day 14, median
  Tmax: 3 h
plasma, 50 mg, Vz, Cohort 7: Compound 1 50 mg/3 hr IV QD × 14 days, Day 14, geometric mean
  Vd: 2.44 L/kg
plasma, 100 mg, AUC(0-24), Cohort 3: Compound 1 100 mg/3 hr IV, single dose, geometric mean [geometric %CV]
  AUC(0-t): 14400 ng·h/mL
plasma, 100 mg, AUC(0-t), Cohort 3: Compound 1 100 mg/3 hr IV, single dose, geometric mean [geometric %CV]
  AUC(0-t): 47400 ng·h/mL
[2]
  AUC(0-inf): 50400 ng·h/mL
  Cmax: 1440 ng/mL
plasma, 100 mg, Cohort 3: Compound 1 100 mg/3 hr IV, single dose, median
  Tmax: 3 h
plasma, 100 mg, Vz, Cohort 3: Compound 1 100 mg/3 hr IV, single dose, geometric mean [geometric %CV]
  Vd: 115 L and 1.88 L/kg
plasma, 150 mg, AUC(0-24), Cohort 8: Compound 1 150 mg/3 hr IV QD × 14 days, Day 1, geometric mean
  AUC(0-t): 19400 ng·h/mL
plasma, 150 mg, AUC(0-24), Cohort 8: Compound 1 150 mg/3 hr IV QD × 14 days, Day 7, geometric mean
  AUC(0-t): 48700 ng·h/mL
plasma, 150 mg, Cohort 8: Compound 1 150 mg/3 hr IV QD × 14 days, Day 1, geometric mean
  Cmax: 1860 ng/mL
plasma, 150 mg, Cohort 8: Compound 1 150 mg/3 hr IV QD × 14 days, Day 7, geometric mean
  Cmax: 3090 ng/mL
plasma, 150 mg, Cohort 8: Compound 1 150 mg/3 hr IV QD × 14 days, Day 1, median
  Tmax: 3 h
plasma, 150 mg, Cohort 8: Compound 1 150 mg/3 hr IV QD × 14 days, Day 7, median
  Tmax: 3 h
plasma, 150 mg, Cohort 8: Compound 1 150 mg/3 hr IV QD × 14 days, Day 14, median
  Tmax: 3.02 h
plasma, 200 mg, AUC(0-24), Cohort 4: Compound 1 200 mg/3 hr IV, single dose, geometric mean [geometric %CV]
  AUC(0-t): 20700 ng·h/mL
[3]
  AUC(0-inf): 83200 ng·h/mL
  Cmax: 2410 ng/mL
plasma, 200 mg, Cohort 4: Compound 1 200 mg/3 hr IV, single dose, median
  Tmax: 3 h
plasma, 200 mg, Vz, Cohort 4: Compound 1 200 mg/3 hr IV, single dose, geometric mean [geometric %CV]
  Vd: 178 L and 2.46 L/kg
plasma, 275 mg, AUC(0-24), Cohort 5: Compound 1 275 mg/3 hr IV, single dose, geometric mean [geometric %CV]
  AUC(0-t): 37100 ng·h/mL
plasma, 275 mg, AUC(0-t), Cohort 5: Compound 1 275 mg/3 hr IV, single dose, geometric mean [geometric %CV]
  AUC(0-t): 114000 ng·h/mL
[4]
  AUC(0-inf): 120000 ng·h/mL
  Cmax: 3960 ng/mL
plasma, 275 mg, Cohort 5: Compound 1 275 mg/3 hr IV, single dose, median
  Tmax: 3 h
plasma, 275 mg, Vz, Cohort 5: Compound 1 275 mg/3 hr IV, single dose, geometric mean [geometric %CV]
  Vd: 123 L and 1.75 L/kg
plasma, 300 mg, AUC(0-24), Cohort 9: Compound 1 300 mg/3 hr IV QD × 14 days, Day 1, geometric mean
  AUC(0-t): 37100 ng·h/mL
plasma, 300 mg, AUC(0-24), Cohort 9: Compound 1 300 mg/3 hr IV QD × 14 days, Day 7, geometric mean
  AUC(0-t): 104000 ng·h/mL
